Read-outs that look alike come from different tables or passages of the source. Marks after values point to notes of the source that are not given here.
Legend:
[1] = tested on: rat skeletal myoblast L6 cells; assay: cells; conditions: L6, read-out: L6 cells IC50
Method: (§1) Cytotoxicity against mammalian cells was assessed using microtitre plates following a described procedure [58]. Briefly, rat skeletal muscle L6 cells were seeded at 1 × 10^4 mL^−1 in 200 μL of growth medium containing different compound concentrations. The plates were incubated for 6 days at 37 °C and 20 μL resazurin was then added to each well. After a further 8 h incubation, the fluorescence was determined using a Spectramax plate reader.

[2] = target: T1, Electrophorus electricus AChE (EeAChE) (Electrophorus electricus, UniProt O42275); set-up: method as in PMID 24389509; conditions: same experimental conditions; ref [40]; cited from earlier work
[3] = tested on: human recombinant AChE (hAChE); set-up: method as in PMID 24389509; conditions: ref [40]; cited from earlier work
in vitro [4] = conditions: rat
Method: as §1

[5] = tested on: bloodstream form T. brucei (strain 221); assay: Trypanocidal activity against cultured bloodstream form T. brucei (resazurin); conditions: for IC50: mean of triplicate ± SEM; for IC90: pH 7.4, read-out: T. brucei IC90
Method: T. brucei in the logarithmic phase of growth were diluted back to 2.5 × 10^4 mL^−1 and aliquoted into 96-well plates. The compounds were then added at a range of concentrations and the plates incubated at 37 °C. Each drug concentration was tested in triplicate. Resazurin was added after 48 h and the plates incubated for a further 16 h and the plates then read in a Spectramax plate reader. Results were analysed using GraphPad Prism.

[6] = target: T1, Electrophorus electricus AChE (EeAChE); assay: biochemical; format: biochemical; conditions: for inhibition at 30 µM: the IC50 could not be determined; for IC50: mean ± SEM
[7] = tested on: L. infantum strain MCAN/ES/92/BCN722 promastigote forms; assay: Activity against promastigotes of L. infantum (acid phosphatase); format: cell-based, Leishmania infantum; conditions: promastigote form, mean ± SD of duplicate experiments performed at least twice
[8] = for Pe: PAMPA-BBB, PBS:EtOH 70:30, mean ± SD of three independent experiments; for Pe (prediction) of BBB permeation: class from PAMPA-BBB Pe
Method: (§2) Thus, the brain passive permeability of the novel compounds was evaluated in vitro through the widely used PAMPA-BBB method [[50]

[9] = tested on: T. cruzi strain MHOM/ES/2203/BCN590 (Tcl) epimastigote forms; assay: Activity against epimastigotes of T. cruzi (cell counting); conditions: mean ± SD of duplicate experiments performed at least twice
in vitro [10] = conditions: pig, PAMPA
Method: as §2

[11] = commercial drugs for PAMPA-BBB validation; ref [2]; cited from earlier work
[12] = tested on: rat skeletal myoblast L6 cells
Method: as §1

[13] = tested on: bloodstream form T. brucei (strain 221); conditions: read-out: T. brucei IC50; nifurtimox reference value; ref [49]; cited from earlier work
[14] = rat skeletal muscle L6 cells, SITb: selectivity index as the ratio of cytotoxic to anti-T. brucei IC50 values, L6 IC50 / T. brucei IC50
[15] = Trypanosoma brucei, pH 7.4, read-out: T. brucei IC50, bloodstream form, pH 7.4
[16] = rat skeletal muscle L6 cells, SILi: selectivity index as the ratio of cytotoxic to anti-L. infantum IC50 values, L6 IC50 / L. infantum IC50
[17] = rat skeletal muscle L6 cells, SITc: selectivity index as the ratio of cytotoxic to anti-T. cruzi IC50 values, L6 IC50 / T. cruzi IC50
[18] = Trypanosoma cruzi, read-out: T. cruzi IC50, epimastigote form
[19] = read-out: T. brucei IC50, bloodstream form, pH 7.4

T1 sequence (O42275 24-633): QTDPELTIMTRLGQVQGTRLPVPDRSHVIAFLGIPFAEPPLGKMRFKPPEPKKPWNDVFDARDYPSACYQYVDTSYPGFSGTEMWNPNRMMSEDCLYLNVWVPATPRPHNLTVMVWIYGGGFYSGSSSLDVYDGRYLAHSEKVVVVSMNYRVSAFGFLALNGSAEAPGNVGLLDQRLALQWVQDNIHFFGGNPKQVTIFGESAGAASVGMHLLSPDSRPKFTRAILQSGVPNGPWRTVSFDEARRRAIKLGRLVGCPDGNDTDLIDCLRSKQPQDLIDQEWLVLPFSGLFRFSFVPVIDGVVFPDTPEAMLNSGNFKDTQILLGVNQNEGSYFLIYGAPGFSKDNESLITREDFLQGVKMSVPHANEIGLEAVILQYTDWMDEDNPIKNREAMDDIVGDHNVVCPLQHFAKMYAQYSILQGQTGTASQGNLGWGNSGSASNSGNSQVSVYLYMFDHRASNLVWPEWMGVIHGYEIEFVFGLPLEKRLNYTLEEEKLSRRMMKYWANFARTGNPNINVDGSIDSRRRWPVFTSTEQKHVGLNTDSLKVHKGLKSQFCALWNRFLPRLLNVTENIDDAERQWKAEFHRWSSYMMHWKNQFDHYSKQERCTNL

CCNCc1ccc2nc(-c3ccc(Cl)cc3)c3c(c2c1)N(Cc1ccccc1)CCC3 [Compound 1]
IC50 [1]: 7.08 ± 0.11 µM
IC50 [2]: 0.15 ± 0.01 µM
IC50 [3]: 0.94 µM
selectivity ratio at 6 days (in vitro [4]; [14]): 2.1
IC50 [5, 15]: 3.33 ± 0.18 µM
IC90 ([5]; Trypanosoma brucei): 4.39 ± 0.04 µM

NCc1ccc(-c2nc3ccc(Cl)cc3c3c2CCCO3)cc1 [Compound 39, 4-{9-Chloro-3,4-dihydro-2H-pyrano[3,2-c]quinolin-5-yl}benzylamine]
inhibition at 30 µM [6]: 45%
IC50 [6]: > 30 µM
IC50 ([7]; Leishmania infantum): 6.1 ± 0.2 µM
Pe [8]: 15.5 ± 1.8 10^−6 cm s^−1
Pe (prediction) of BBB permeation [8]: CNS+ (compounds of high BBB permeation (CNS+): Pe (10^−6 cm s^−1) > 5.25)
IC50 [1]: 7 ± 0.19 µM
selectivity ratio at 6 days (in vitro [4]; [16]): 1.1
selectivity ratio at 6 days (in vitro [4]; [14]): 4.8
selectivity ratio at 6 days (in vitro [4]; [17]): 0.2
IC50 [9, 18]: ~30 µM
IC50 ([9]; read-out: T. cruzi IC50, epimastigote form): 29.2 ± 3.7 µM
IC50 [5, 15]: 1.5 µM
IC90 ([5]; Trypanosoma brucei): 1.77 ± 0.02 µM
IC50 [5, 19]: 1.46 ± 0.02 µM

Clc1ccc2nc(-c3cccs3)c(CCCN3CCCC3)cc2c1 [Compound 49, N-{3-[6-Chloro-2-(2-thienyl)quinolin-3-yl]propyl}pyrrolidine]
inhibition at 30 µM [6]: 54%
IC50 [6]: ~30 µM
IC50 ([7]; Leishmania infantum): ~15 µM
IC50 [7]: 13.1 ± 5.8 µM
Pe [8]: 12.9 ± 0.1 10^−6 cm s^−1
Pe (prediction) of BBB permeation [8]: CNS+ (compounds of high BBB permeation (CNS+): Pe (10^−6 cm s^−1) > 5.25)
IC50 [1]: 9.44 ± 0.14 µM
selectivity ratio at 6 days (in vitro [4]; [16]): 0.7
selectivity ratio at 6 days (in vitro [4]; [14]): 2.7
selectivity ratio at 6 days (in vitro [4]; [17]): 0.3
IC50 [9, 18]: 35.2 ± 12.6 µM
IC50 [5, 15]: ~5 µM
IC90 ([5]; Trypanosoma brucei): 4.93 ± 0.17 µM
IC50 [5, 19]: 3.56 ± 0.17 µM

CCn1cc(C(=O)O)c(=O)c2cc(F)c(N3CCNCC3)cc21 [Norfloxacin]
Papp (in vitro [10]): 0.9 ± 0.02 ×10⁻⁶ cm/s

CN1C(C(=O)Nc2ccccn2)=C(O)c2ccccc2S1(=O)=O [Piroxicam]
Pe, literature value [11]: 2.5 10–6 cm s–1

CN(C)CCCN1c2ccccc2Sc2ccccc21 [Promazine]
Pe, literature value [11]: 8.8 10–6 cm s–1

O.O.O.O=C([O-])C(O)C(O)C(=O)[O-].O=C([O-])C(O)C(O)C(=O)[O-].[K+].[K+].[Sb].[Sb] (stereo not drawn) [Sb (III), Potassium antimony (III) tartrate hydrate, reference compound]
IC50 [7]: 24.3 ± 1.7 µM
SILi: selectivity index as the ratio of cytotoxic to anti-L. infantum IC50 values [12]: 0.1 ^g

CC1CS(=O)(=O)CCN1/N=C/c1ccc([N+](=O)[O-])o1 (stereo not drawn) [nifurtimox, reference compound]
IC50 [1]: 32 ± 1.1 µM
selectivity ratio at 6 days (in vitro [4]; SITb: selectivity index as the ratio of cytotoxic to anti-T. brucei IC50 values): 7.3
IC50 [13]: 4.4 ± 0.7 µM

Source: article PMC4638191, “Multicomponent reaction-based synthesis and biological evaluation of tricyclic heterofused quinolines with multi-trypanosomatid activity” (European Journal of Medicinal Chemistry, 2015)
